# Measured values: US10787485B2, “Peptide for coating surfaces” (Universität Leipzig, priority 2015, dated 2020)
# Entries after “also recorded” stand apart in the source; their conditions may differ.
# Assays:
# SaOS-2 cells [1] = experiment: Cell adhesion assay on peptide-coated titanium (fluorescence microscopy); format: cell-based; details: 6 h adhesion, serum-free medium; for cell number of adhered cells: normalized to uncoated Ti; for average cell plane (cell propagation, cell size) / cell morphology / actin cytoskeleton: 1 μM peptide coating
# Experimental: (§1) To determine the bioactivity of the ligated peptides and their controls cell adhesion studies have been performed. Osteoblast-like cells (SaOS-2) have been sown on etched peptide-coated titanium. All cellular experiments were performed in serum-free medium to prevent false results by adsorption of serum proteins. To study initial cell adhesion the cells were fixed and dyed after 6 h of cultivation to observe morphology and average cell plane and number by means of fluorescence microscopy. […] Indeed, an increase in cell size was observed, slightly higher than on uncoated titanium slices. […] Cells having a fibroblast-like morphology and distinct bundles of fibrils have been found on all RGD-containing peptide coatings. […] In addition to the average cell plane the cell number was determined by counting cells that adhered after 6 h. […] Moreover, a similar tendency as already in the cell plane experiment could be observed. […] It is known that RGD peptides mediate the formation of focal contacts that are decisive for the outer-inner communication between cell and ECM.^6 By immuno-labeling with an anti-vinculin antibody it is possible to visualize vinculin, a protein involved in building up focal adhesion.
# Titanium foil was stamped and etched as already described. Following washing steps with water and PBS buffer (Dulbeccos phosphate) the titanium slices were sterilized with 70% ethanol/water (v/v) in an ultrasonic bath for 15 min. After having washed twice with PBS buffer the titanium slices were incubated overnight in a 48-well plate at RT with 300 μL of 1 μM of a peptide solution in PBS, PBS (negative control), and fibronectin in PBS (25 μg/mL, positive control).
# Coated titanium slices (48-well plate) were washed twice with PBS. SaOS-2 cells were re-suspended in medium without FCS. Thereafter, the cells were sown on the coated titanium slices (50,000-90,000 cells per well, in this range we didn't find any influence on the cell plane for respective coating). Following adhesion for 6 hrs. the slices were washed with PBS and the cells were fixed with 4% paraformaldehyde in PBS for 30 min. Subsequently, the adhered cells were washed and permeabilized with 1% Triton X-100 in PBS for 1 min. Thereafter, the cells were dyed with phalloidin-tetramethylrhodamine isothiocyanate (phalloidin-TRITC) and HOECHST 33342 (both Sigma Aldrich). For fluorescence microscopy (Axio Observer microscope, Zeiss) the slices were attached to slides. For each slice (triplicate) 3 representative images at 20 fold and 10 fold magnification were made. Then, the average cell plane was determined by edging (Software Axio Vision 4.8, Zeiss) each single cell on one representative image (20 fold) each of each triplicate. The determined values were summarized from 3 independent experiments and represented as mean±SEM. To determine the cell number, three 10 fold magnified images were evaluated by means of ImageJ software and normalized to titanium=1, n≥3.
# [2] = Biotin ELISA, binding of biotinylated peptides to etched titanium slices; details: for pEC50 binding affinity to titanium / EC50: biotinylated peptides, etched titanium slices, 2 hrs at RT in TBS; for EC50: read-out: EC50 binding affinity to titanium; for beginning of saturation phase of binding to titanium: concentration effect curve of the biotin ELISA
# Experimental: Following synthesis of the mussel peptide by solid phase peptide synthesis (Fmoc/tBu strategy) the binding affinity to titanium was studied.
# (§2) For that, titanium slices were etched in order to obtain a freshly oxidized surface. Subsequently, the titanium slices were incubated with various peptide concentrations. Following intensive washing steps titanium-bound peptide was identified with the well-described biotin-streptavidin interaction. […] Moreover, stability of the DOPA peptides was tested in cell supernatant to imitate in vitro conditions. For that, titanium slices were coated with the corresponding biotinylated peptides (concentration=1 μM). Following incubation in SaOS-2 cell supernatant at 37° C. remaining peptide was identified by means of the biotin ELISA. Within a period of 7 days constantly more than 50% of immobilized and biotinylated peptide were detected (FIG. 2C).
# Titanium foil (Sigma Aldrich, thickness: 0.127 mm) was cut to round pieces (area=0.43 cm^2) and etched in H2SO4 (30%)/H2O2 (1:1 v/v) for 7 min. Following washing steps with water and TBS buffer (50 mM tris(hydroxymethyl)-aminomethane (Tris), 150 mM NaCl, pH 7.6) the titanium slices were incubated with various concentrations of biotinylated peptides in TBS buffer dissolved for 2 hrs. at RT. Subsequently, the coated slices were washed 5 times with TBS-T buffer (50 mM Tris, 150 mM NaCl, 0.1% Tween 20, pH 7.6) and transferred to new reaction vessels. The following biotin ELISA was performed in accordance with Hassert et al.^3 Zero reading values were obtained with uncoated titanium slices and subtracted from the generated values (absorption per cm^2). The obtained data points were non-linearly fitted with GraphPad Prism 5 software (GraphPadInc.). Error bars are represented as standard error of the mean (SEM) from at least 2 independent experiments.
# SaOS-2 cells [3] = experiment: Immunolabelling of focal contacts (vinculin) on peptide coatings; format: cell-based; details: 24 hrs adhesion, anti-vinculin antibody
# Experimental: as §1
# Cells (40,000 per well) were sown onto coated and washed titanium slices as already described. After 1 d of cell adhesion the slices were washed twice with PBS. All of the following washing steps were performed with 0.05% (v/v) Tween-20 in PBS. Thereafter, the cells were fixed and permeabilized as already described. To block unspecific interactions the slices were incubated with 1% bovine serum albumin (BSA) in PBS for 40 min. Subsequently, the cells were incubated with a murine monoclonal antibody against vinculin (Millipore, staining kit, 1:200) for 1 hr. at RT. Thereafter, the cells were washed and labeled with phalloidin-TRITC and a fluoresceinisothiocyanate (FITC) conjugated goat anti-mouse antibody (Millipore, 1:100) in 1% (v/v) BSA in PBS for 2 hr. Following a further washing step the nucleus was dyed with 4′,6-diamidino-2-phenylindol (DAPI, Millipore) in PBS for 15 min. Before the slices were attached to slides they were washed three times for 10 min. each. Fluorescence microscopy was performed on an Axio Observer microscope and an ApoTome Imaging System (Zeiss).
# [4] = Stability test by biotin ELISA of peptides immobilized on titanium, in SaOS-2 cell supernatant; format: in vitro ADME; details: titanium coated at 1 μM, 37° C.
# Experimental: as §2
# Titanium slices were etched as described and incubated overnight with 1 μM of peptide solutions in TBS buffer at RT. Subsequently, the coated slices were washed 5 times with TBS-T buffer and transferred to new reaction vessels. Thereafter, the titanium slices were incubated with cell supernatant (of SaOS-2 cells after 2 days of cell cultivation) at 37° C. for certain times. To detect […], biotinylated peptide on the surface the titanium slices were washed 4 times with TBS-T and once with TBS and the biotin ELISA was performed as described. Zero reading values were obtained by uncoated titanium slices and subtracted from the generated data. The obtained measuring values were normalized to the value measured at 0 min. Error bars are represented as standard error of the mean (SEM) from at least 2 independent experiments (double determination).
# SaOS-2 cells [5] = experiment: Viability assay (resazurin) on coated titanium; format: cell-based; details: after 3 days of adhesion
# Experimental: (§3) In addition to initial cell adhesion after 6 h cell viability and proliferation after 3 d was studied. Incorporation of the bromine-labeled thymidine analogue bromodeoxyuridine (BrdU) within 24 h, after 2 d of cell adhesion, was used to determine proliferation of cells on coated titanium. No significant changes could be found between the immobilized peptides and controls (FIG. 5C). However, a peptide coating is advantageous compared to untreated titanium. […] Cell viability was studied after 3 days of adhesion by reacting resazurin to resorufin by living cells. […] This fact emphasizes the cell repellent, but at the same time not toxic properties of the PEG. […] Thus, the advantageous approach to present both cell binding peptides in one molecule is confirmed.
# Cells were sown onto coated and washed titanium slices in FCS-free medium in a 96-well plate. After one day the medium was replaced by FCS-containing medium. On day 3 20 μL of CellTiderBlue® (Promega) were added to each well. After 2 hrs. of incubation the reaction of resazurin to resorufin was determined by means of fluorescence intensity measurement at 560Ex/590Em nm. The measured values (mean±SEM) were evaluated from 4 independent experiments performed in triplicate.
# SaOS-2 cells [6] = experiment: Proliferation assay (BrdU) on coated titanium; format: cell-based; details: 24 h incorporation after 2 d of cell adhesion, normalized to uncoated titanium
# Experimental: as §3
# Cells were sown onto coated and washed titanium slices in FCS-free medium in a 96-well plate. After one day the medium was replaced by FCS-containing medium. On day 2 bromodeoxyuridine (BrdU) was added to each well for labelling (colorimetric Cell Proliferation kit, Roche). After 24 hrs. of incorporation of the label the cells were washed and fixed. […] Binding of the antibody was detected with the addition of a 3,3′,5,5′-tetramethylbenzidine (TMB) solution and H2O2(Calbiochem). […] The measured values (mean±SEM) were evaluated from 4 independent experiments performed in triplicates and normalized to uncoated titanium.
Substance,pEC50 binding affinity to titanium [2],EC50 [2] [nM],formation of focal adhesion contacts (vinculin) (SaOS-2 cells [3]),"average cell plane (cell propagation, cell size) (SaOS-2 cells [1])",cell morphology / actin cytoskeleton (SaOS-2 cells [1]),"stability on titanium, comparison of peptides [4]",further results
c[RGDfK(dienophile)],–,–,–,–,–,–,cell number of adhered cells (SaOS-2 cells [1]): increased to a greater extent than on HBP
P*-T-Y-K-NH2 [bio-(−) mefp-1],4.6±0.1,> 10000,–,–,–,–,–
C-Peg-Y*-K-Y*-Peg-G*(K(N3)-FHRRIKA-NH2)-βA-NH2 [MP-HBP],–,–,a few or no focal adhesion contacts,increase of cell propagation compared with MP and uncoated titanium,only formed a few actin filaments and adhered in irregular cell shapes,–,–
C-Peg-Y*-K(c[RGDfK])-Y*-Peg-G*-βA-NH2 [MP-RGD],–,–,line-like adhesion contacts (green) were formed,average cell size comparable to the naturally occurring ECM protein fibronectin,–,–,–
Bio-X-X-C-Peg-Y*-K-Y*-Peg-G*-βA-NH2 [bio-MP],–,–,–,–,–,no significant differences,–
Bio-X-X-A-K-P*-S-Y*-P*-P*-T-Y*-K-NH2 [mefp-1],8.2±0.1,6.4,–,–,–,no significant differences,beginning of saturation phase of binding to titanium [2]: sub-μM range
C-Peg-Y*-K-Y*-Peg-G*-βA-NH2 [MP],7.6±0.1,23.6,a few or no focal adhesion contacts,smallest cell propagation,rather round shape with slightly formed cytoskeleton,tendency to a higher stability,cell viability (resazurin to resorufin) (SaOS-2 cells [5]): more living cells could be analyzed on this coating than on titanium; beginning of saturation phase of binding to titanium [2]: sub-μM range; cell number of adhered cells (SaOS-2 cells [1]): smallest cell number
C-Peg-Y*-K(c[RGDfK])-Y*-Peg-G*(K(N3)-FHRRIKA-NH2)-βA-NH2 [MP-RGD-HBP],–,–,line-like adhesion contacts (green) were formed; also recorded: slight increase in focal complexes,highest average cell plane,"distinctive, parallel actin filaments have formed",–,cell viability (resazurin to resorufin) (SaOS-2 cells [5]): best result among all synthesized peptides; cell proliferation (BrdU incorporation) (SaOS-2 cells [6]): slightly increased cell proliferation
